Data on 72 compounds can be found in the supplement of paper PMC6723410.

Structures are written as SMILES.

One assay deals with GUMC-403. In words: viability at highest tested concentration (max response) relative to DMSO (% of DMSO control); higher = less cytotoxic. The following applies: library / dose series: MIPE library, 11-point 1:3 dilution; top concentration 23 µM; 48 h. The essentials:
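The value is viability at the highest tested concentration, expressed relative to vehicle control. Patient-derived GUMC-403 papilloma cells, grown by conditional reprogramming, were seeded at 700/well in 5 μL F + Y medium in 1536-well plates. After an overnight incubation at 37 °C, they received 23 nL of compound by pin tool for 48 h. Readout was CellTiter-Glo luminescence on a ViewLux, normalised to vehicle wells (100%) and empty wells (0%).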
`O=C1NC(=O)/C(=C/c2ccc3nccnc3c2)S1` yielded a viability of 49.8.
The same measure, in the same setting: the figure for `CN[C@@H]1CN(C[C@H]1OC)C2=NC3=C(C=C2)C(=O)C(=C\N3C4=NC=CS4)/C(O)=O` is 94.4.

Staying with this assay, now noted: library / dose series: MIPE library, 11-point 1:3 dilution; top concentration 46.1 µM; 48 h.
As to `C[C@H](Cc1ccc(O)c(O)c1)[C@@H](C)Cc1ccc(O)c(O)c1`, the viability was 110.
Same read-out and setting: next, `CC1(C)S[C@H]2[C@H](NC(=O)[C@@H](N)C3=CC=C(O)C=C3)C(=O)[N@]2[C@H]1C(O)=O`: 124.
On the same count and under the same terms, next, `C[C@]12Cc3cn[nH]c3C[C@@H]1CC[C@@H]1[C@@H]2CC[C@@]2(C)[C@H]1CC[C@]2(C)O`: 108; `CCN1CCN(c2ccc(Nc3cc(N(C)C(=O)Nc4c(Cl)c(OC)cc(OC)c4Cl)ncn3)cc2)CC1`: 117; `COC1=CC=C(C=C1)C/2=C/OC3=CC(=CC=C3C2=O)O`: 95.7.
Still for that read-out and setting: the figure for `CC(C)(C)c1cc(C(=O)O)c(NC(=O)Nc2ccc3[nH]ncc3c2)s1` is 87.6.
`COc1cc(F)c(F)c(Nc2ccc(I)cc2F)c1N[S+](=O)([O-])C1(C[C@H](O)CO)CC1` displayed a viability of 101.
On the same count and under the same terms, next, `Cc1cn([C@@H]2O[C@H](CO)[C@@H](O)[C@@H]2F)c(=O)[nH]c1=O`: 128; `C=CCc1cccc(/C=N/NC(=O)CN2CCN(Cc3ccccc3)CC2)c1O`: 73.5.
The same measure, in the same setting: next, `Cc1nc(-c2ccc(OCC(C)C)c(C#N)c2)sc1C(=O)O`: 129; `NC1=C(Cl)C(=CC=N1)OC2=C(F)C=C(NC(=O)\C3=C\N\C=C(C3=O)\C4=CC=C(F)C=C4)C=C2`: 108; `Cc1nc(-c2ccc(-c3ccc(C(=O)N4CCc5cc6c(cc54)C4(CCN(C)CC4)CO6)cc3)c(C)c2)no1`: 124.
Same read-out and setting: next, `O=C(O)CCn1c2c(c3ccccc31)C[C@H](N[S+](=O)([O-])c1ccc(F)cc1)CC2`: 116; `C[C@@H]1C[C@H]2[C@@H]3\C=C(C)/C4=C/C5=C(C[C@]4(C)[C@H]3[C@@H](O)C[C@]2(C)[C@@]1(O)C(=O)CO)C=N[N]5C6=CC=CC=C6`: 125; `CNC(=O)c1cc(Oc2ccc(NC(=O)Nc3cc(C(C)(C)C)nn3-c3ccc4ncccc4c3)c(F)c2)ccn1`: 83.8.
The compound `CC(C)NCC(O)c1ccc(NS(C)(=O)=O)cc1` (configuration not stated) displayed a viability of 123.
Still for that read-out and setting: the figure for `CCC1=C(C)CN(C(=O)NCCc2ccc(S(=O)(=O)NC(=O)N[C@H]3CC[C@H](C)CC3)cc2)C1=O` is 113; for `O=C(NOC[C@H](O)CO)c1ccc(F)c(F)c1Nc1ccc(I)cc1F` it is 101.
Still for that read-out and setting: next, `N=C(N)NC(=N)N1CCOCC1`: 132; `COc1ccc(Cc2ccc(NC(N)=O)cc2)cc1-c1cccc(Cl)c1`: 124; `O=C(NC1CCOCC1)c1ccc(-c2cc(-c3c[nH]nc3-c3ccccn3)ccn2)cc1`: 159.
On the same count and under the same terms, the figure for `O=C(c1ccc(Nc2nccc(-c3cc4ccccc4s3)n2)cc1)N1CCC(N2CCCC2)CC1` is 41.
In the case of `O=c1oc2cc(O)ccc2s1`, the viability is 102.
`CC(=O)OCCN1C(=O)c2c(C)nc3ccc([S+](=O)([O-])N4CCOCC4)cc3c2C1=O` showed a viability of 123.
The compound `Cc1cc(SCc2sc(-c3ccc(C(F)(F)F)cc3)nc2C)ccc1OCC(=O)O` returned a viability of 133.
On the same count and under the same terms, the figure for `COc1ccc(COc2cc3oc(=O)c4cc(C(C)O)ccc4c3cc2OC)cc1` (configuration not stated) is 86.3; for `OCCC#Cc1nc(-c2ccc(F)cc2)c(-c2ccncc2)n1CCCc1ccccc1` it is 64; for `O=C1NC(=O)/C(=C/c2ccc3c(c2)OC(F)(F)O3)S1` it is 94.
For `Cc1cnc(Nc2ccc(CN3CCOCC3)cc2)nc1Nc1cccc([S+](=O)([O-])NC(C)(C)C)c1`, the viability turned out to be 31.1.
Still for that read-out and setting: next, `CCCN[S+](=O)([O-])Nc1ncnc(OCCOc2ncc(Br)cn2)c1-c1ccc(Br)cc1`: 122; `NC\1=N\C(=O)N(\C=C1F)[C@H]2C[C@H](O)[C@@H](CO)O2`: 108.
Still for that read-out and setting: the figure for `CCN(C(=O)C/1=C(O)/C2=C(C=CC=C2Cl)N(C)C1=O)C3=CC=CC=C3` is 119; for `Cc1nc(C(=O)NCC(=O)O)c(O)c2ccc(Oc3ccccc3)cc12` it is 132; for `O=[N+]([O-])c1ncc[nH]1` it is 82.9.
On the same count and under the same terms, next, `Nc1ccc([S+](=O)([O-])Nc2ccnn2-c2ccccc2)cc1`: 133; `CC(=O)C\1=C(/C)C2=CN=C(NC3=CC=C(C=N3)N4CCNCC4)N=C2N(C5CCCC5)C1=O`: 93; `CC(C)[C@H](N)C(=O)OCCOC[N]1C=NC2=C1\N=C(N)/NC2=O`: 107.
As to `COc1ccc(CC2SC(=O)NC2=O)cc1C(=O)NCc1ccc(C(F)(F)F)cc1` (configuration not stated), the viability amounted to 95.6.
Consider `CN(C)CCN(Cc1ccc(Cl)cc1)c1ccccn1.Cl`, for which the viability was determined as 97.6.
On the same count and under the same terms, the figure for `COc1ccc(/C=C\c2cc(OC)c(OC)c(OC)c2)cc1O` is 93.7.
Still for that read-out and setting: next, `CCCCCCCCCC(=O)N[C@@H](Cc1c[nH]c2ccccc12)C(=O)N[C@H](CC(N)=O)C(=O)N[C@@H](CC(=O)O)C(=O)N[C@@H]1C(=O)NCC(=O)N[C@@H](CCCN)C(=O)N[C@@H](CC(=O)O)C(=O)N[C@H](C)C(=O)N[C@@H](CC(=O)O)C(=O)NCC(=O)N[C@H](CO)C(=O)N[C@@H]([C@@H](C)CC(=O)O)C(=O)N[C@@H](CC(=O)c2ccccc2N)C(=O)O[C@@H]1C`: 101; `CCN1C[C@H](C)[N]2C(=C(O)C3=C2\C(=N/N(CC4=CC=C(F)C(=C4)Cl)C3=O)C(=O)NC)C1=O`: 123.
Same read-out and setting: the figure for `Cc1csc(-c2nnc(Nc3ccc(Oc4ncccc4-c4ccnc(N)n4)cc3)c3ccccc23)c1` is 101; for `COC(=O)c1ccc2c(c1)NC(=O)/C2=C(\Nc1ccc(N(C)C(=O)CN2CCN(C)CC2)cc1)c1ccccc1` it is 112.
Regarding `C[C@@H](N)C1CC[C@@H](CC1)C(=O)NC2=CC=NC=C2` (some centres not stated), the viability is 152.
Still for that read-out and setting: next, `CCOC(=O)[C@H](CCc1ccccc1)N[C@@H](C)C(=O)N1CCC[C@H]1C(=O)O`: 125.
`CNCC(O)C(O)C(O)C(O)CO.O=C(O)c1ccc(-c2cc3cccnc3c(-c3ccc4nonc4c3)n2)cc1` registered a viability of 117.
On the same count and under the same terms, next, `COc1cc2c(cc1OC)CN(CCc1ccc(NC(=O)c3cccc4c(=O)c5cccc(OC)c5[nH]c34)cc1)CC2`: 132; `C[S+](=O)([O-])N(Cc1ccco1)CC(O)Cn1c2ccccc2c2ccccc21` (configuration not stated): 90.4.
The same measure, in the same setting: the figure for `CC(=O)O[C@@]12CO[C@@H]1C[C@H](O)[C@]3(C)[C@@H]2[C@H](OC(=O)C4=CC=CC=C4)[C@]5(O)C[C@H](O)/C(=C(/[C@@H](O)C3=O)C5(C)C)C` is 117.
The same measure, in the same setting: next, `CC1=C(C=CC=C1)N2\C(=N/C3=C(C(=CC=C3)C)C2=O)C[N]4N=CC5=C4N=CN=C5N`: 85.3.
Turning to `Nc1ccc(C(=O)Nc2cccc(-c3nc(N4CCOCC4)c4oc5ncccc5c4n3)c2)cn1`, the viability came out at 101.
The compound `CCn1c(=O)c2c(nc(/C=C/c3ccc(OC)c(OC)c3)n2C)n(CC)c1=O` showed a viability of 134.
Still for that read-out and setting: the figure for `CC1(C)CCC(=C(CN2CCN(CC2)C3=CC=C(C=C3)C(=O)N[S+]([O-])(=O)C4=CC(=C(N[C@H](CCN5CCOCC5)CSC6=CC=CC=C6)C=C4)[S+]([O-])(=O)C(F)(F)F)\C1)/C7=CC=C(Cl)C=C7` is 97.
Same read-out and setting: next, `CCCCCN(CCC12CC3CC(CC(C3)C1)C2)C(=O)NCCCc1ccncc1`: 89.8; `CCCCN(CCCC)CCC(O)c1cc2c(Cl)cc(Cl)cc2c2cc(C(F)(F)F)ccc12` (configuration not stated): 107.
The same measure, in the same setting: the figure for `NNCCc1ccccc1` is 109; for `CCCCc1ccc2[nH]c(NC(=O)OC)nc2c1` it is 112; for `CNCCCC12CCC(c3ccccc31)c1ccccc12` it is 105.
On to `O=C(Nc1ncc(SCCN2CCCC2)s1)[C@]1(c2ccc([S+](=O)([O-])C3CC3)cc2)C[C@H]1C1CCCCC1`, for which the viability amounted to 108.
The same measure, in the same setting: next, `CC(C)c1cc(C(C)C)c(CC(=O)N[S+](=O)([O-])Oc2c(C(C)C)cccc2C(C)C)c(C(C)C)c1`: 99.7; `CC(=O)OCC(=O)[C@@]1(O)CC[C@H]2[C@@H]3CCC/4=C/C(=O)CC[C@]4(C)[C@H]3C(=O)C[C@]12C`: 119; `O=C(O)CCNc1cc(N2CCc3ccccc3CC2)nc(-c2ccccn2)n1`: 125.
In turn, `NC(=O)c1c(OCc2c(F)cc(Br)cc2F)nsc1NC(=O)NCCCCN1CCCC1` registered a viability of 101.
Still for that read-out and setting: next, `CCCCC(C)(C)[C@H](O)/C=C/[C@H]1[C@H](O)CC(=O)[C@@H]1C/C=C\CCCC(=O)O`: 104.
`CCCCCCCCCCCCCC(=O)N[C@H](CO)[C@H](O)c1ccc([N+](=O)[O-])cc1` returned a viability of 116.
The same measure, in the same setting: next, `Clc1ccc(CCC(Cn2ccnc2)Sc2c(Cl)cccc2Cl)cc1` (configuration not stated): 97.
The same measure, in the same setting: next, `CN(C)[C@H]\1[C@@H]2[C@@H](O)[C@H]3\C(=C(O)/[C@]2(O)C(=O)\C(=C1O)C(N)=O)C(=O)C4=C(C=CC=C4O)[C@@]3(C)O`: 114; `CC\12CCC(=O)\C=C1CCC3C2CCC4(C)C3CCC4(O)C#C` (configuration not stated): 103.

The same assay, now with this note: library / dose series: MIPE library, 11-point 1:3 dilution; top concentration 92.2 µM; 48 h.
Compound `O=c1[nH]c(=O)n(C2CCCO2)cc1F` (configuration not stated) returned a viability of 104.
